# pEC50: −log10 of the molar value.
# Legend:
# medaka Esr1 (mEsr1) [1] = target: T1, medaka Esr1 (mEsr1) (Oryzias latipes, UniProt P50241); assay: cell-based; set-up: species or system Japanese medaka (Oryzias latipes)
# T1 sequence (P50241 1-620): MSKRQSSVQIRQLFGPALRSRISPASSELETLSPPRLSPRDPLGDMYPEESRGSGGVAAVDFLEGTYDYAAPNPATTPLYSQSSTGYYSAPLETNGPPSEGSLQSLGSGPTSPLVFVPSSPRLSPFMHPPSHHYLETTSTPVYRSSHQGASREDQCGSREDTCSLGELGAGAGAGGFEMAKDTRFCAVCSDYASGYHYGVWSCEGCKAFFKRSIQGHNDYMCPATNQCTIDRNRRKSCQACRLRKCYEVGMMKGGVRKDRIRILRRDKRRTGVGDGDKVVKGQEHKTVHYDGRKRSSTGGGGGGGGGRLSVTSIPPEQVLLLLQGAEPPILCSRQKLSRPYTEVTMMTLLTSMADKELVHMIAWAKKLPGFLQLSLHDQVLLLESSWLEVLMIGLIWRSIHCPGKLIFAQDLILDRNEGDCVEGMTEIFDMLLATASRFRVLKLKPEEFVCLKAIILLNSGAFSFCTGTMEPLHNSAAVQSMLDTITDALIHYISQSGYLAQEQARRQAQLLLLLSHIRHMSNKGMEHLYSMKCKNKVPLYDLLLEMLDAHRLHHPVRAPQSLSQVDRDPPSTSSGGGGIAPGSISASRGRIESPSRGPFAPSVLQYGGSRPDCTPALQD
# medaka Esr1 (mEsr1) [2] = target: T1, medaka Esr1 (mEsr1); assay: Medaka Esr1 reporter gene assay, antagonist assay; assay type: cell-based, Japanese medaka (Oryzias latipes); conditions: E2 spiked at 0.2 nM (A); MAC = 1.0 × 10^−5 M
# medaka ARβ (mArβ) [3] = target: T2, medaka ARβ (mArβ) (Oryzias latipes, UniProt D1MV73); assay: Medaka ARβ reporter gene assay, agonist assay; assay type: cell-based, Japanese medaka (Oryzias latipes); conditions: MAC = 1.0 × 10^−5 M
# T2 sequence (D1MV73 1-744): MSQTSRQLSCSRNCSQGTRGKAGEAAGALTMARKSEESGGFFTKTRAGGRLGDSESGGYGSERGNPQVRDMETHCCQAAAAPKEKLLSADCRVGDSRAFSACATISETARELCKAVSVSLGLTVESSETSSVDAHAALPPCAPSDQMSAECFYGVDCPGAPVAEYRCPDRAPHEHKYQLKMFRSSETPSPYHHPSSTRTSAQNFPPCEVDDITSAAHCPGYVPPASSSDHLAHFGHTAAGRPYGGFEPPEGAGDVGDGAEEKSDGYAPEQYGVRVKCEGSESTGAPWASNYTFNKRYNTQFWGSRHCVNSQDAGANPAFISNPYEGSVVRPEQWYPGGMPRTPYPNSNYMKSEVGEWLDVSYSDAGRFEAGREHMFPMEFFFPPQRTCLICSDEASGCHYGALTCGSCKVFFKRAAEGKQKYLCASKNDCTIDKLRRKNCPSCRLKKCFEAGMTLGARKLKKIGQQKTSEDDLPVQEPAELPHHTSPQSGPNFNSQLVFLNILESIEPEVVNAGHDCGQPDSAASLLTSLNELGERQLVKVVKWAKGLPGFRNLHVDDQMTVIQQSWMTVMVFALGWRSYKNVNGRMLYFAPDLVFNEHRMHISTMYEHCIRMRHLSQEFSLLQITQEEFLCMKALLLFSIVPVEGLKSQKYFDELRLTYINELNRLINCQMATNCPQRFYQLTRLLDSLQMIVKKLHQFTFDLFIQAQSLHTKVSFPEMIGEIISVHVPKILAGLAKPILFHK
# medaka ARβ (mArβ) [4] = target: T2, medaka ARβ (mArβ); assay: Medaka ARβ reporter gene assay, antagonist assay; assay type: cell-based, Japanese medaka (Oryzias latipes); conditions: 11‐KT spiked at 50 nM (D); MAC = 1.0 × 10^−5 M
# [5] = system: Japanese medaka (Oryzias latipes); assay: Fish Short‐Term Reproduction Assay; assay type: in vivo; conditions: for Fertility rate / Hepatic VTG, female / Hepatic VTG, male / Mortality / Mortality, number of dead fish / Number of fertilized eggs (per female per day) / Number of total eggs (per female per day) / SSC female (joint plates with papillary processes) / SSC male (joint plates with papillary processes): 21 d; for GSI Female / GSI Male / HSI Female / HSI Male / Length Female / Length Male / Weight Female / Weight Male: completion of exposure
# [6] = measured concentration 0.0619 μg/L
# [7] = measured concentration 0.294 μg/L
# [8] = measured concentration 1.30 μg/L
compound,measurement,setting,value
"CC(C)C(C(=O)OC(C#N)c1cccc(Oc2ccccc2)c1)c1ccc(Cl)cc1 (centres unmarked) [FV, Fenvalerate]",pEC50,medaka Esr1 (mEsr1) [1],5.62
same,In vitro positive: Esr,medaka Esr1 (mEsr1) [1]; mode of action in which EC50 or PC10 was obtained in RGA,Esr
same,Antagonistic activity,medaka Esr1 (mEsr1) [2],NE (MAC = 1.0 × 10^−5 M) ^(A)
same,Agonistic activity,medaka ARβ (mArβ) [3],NE (MAC = 1.0 × 10^−5 M)
same,Antagonistic activity,medaka ARβ (mArβ) [4],NE (MAC = 1.0 × 10^−5 M)^(D)
same,Fertility rate,[5]; 0.0619 μg/L measured,92 ± 3.2%
same,"Hepatic VTG, female",[5]; 0.0619 μg/L measured,390 ± 68 ng/mg‐liver
same,"Hepatic VTG, male",[5]; 0.0619 μg/L measured,0.5 ± 0.0 ng/mg‐liver
same,Mortality,[5]; 0.0619 μg/L measured,0.0%
same,"Mortality, number of dead fish",[5]; 0.0619 μg/L measured,0
same,Number of fertilized eggs (per female per day),[5]; 0.0619 μg/L measured,18 ± 2.7
same,Number of total eggs (per female per day),[5]; 0.0619 μg/L measured,19 ± 3.6
same,SSC female (joint plates with papillary processes),[5]; 0.0619 μg/L measured,0 ± 0
same,SSC male (joint plates with papillary processes),[5]; 0.0619 μg/L measured,80 ± 5.6
same,Fertility rate,[5]; 0.294 μg/L measured,93 ± 4.3%
same,"Hepatic VTG, female",[5]; 0.294 μg/L measured,370 ± 212 ng/mg‐liver
same,"Hepatic VTG, male",[5]; 0.294 μg/L measured,0.5 ± 0.0 ng/mg‐liver
same,Mortality,[5]; 0.294 μg/L measured,0.0%
same,"Mortality, number of dead fish",[5]; 0.294 μg/L measured,0
same,Number of fertilized eggs (per female per day),[5]; 0.294 μg/L measured,20 ± 3.5
same,Number of total eggs (per female per day),[5]; 0.294 μg/L measured,21 ± 3.1
same,SSC female (joint plates with papillary processes),[5]; 0.294 μg/L measured,0 ± 0
same,SSC male (joint plates with papillary processes),[5]; 0.294 μg/L measured,88 ± 7.2
same,Fertility rate,[5]; 1.30 μg/L measured,94 ± 2.8%
same,"Hepatic VTG, female",[5]; 1.30 μg/L measured,237 ± 152 ng/mg‐liver
same,"Hepatic VTG, male",[5]; 1.30 μg/L measured,0.9 ± 0.4 ng/mg‐liver
same,Mortality,[5]; 1.30 μg/L measured,0.0%
same,"Mortality, number of dead fish",[5]; 1.30 μg/L measured,0
same,Number of fertilized eggs (per female per day),[5]; 1.30 μg/L measured,23 ± 1.7
same,Number of total eggs (per female per day),[5]; 1.30 μg/L measured,24 ± 1.8
same,SSC female (joint plates with papillary processes),[5]; 1.30 μg/L measured,0 ± 0
same,SSC male (joint plates with papillary processes),[5]; 1.30 μg/L measured,83 ± 4.8
same,LOECREPRO,[5]; LOEC on reproduction (fecundity and/or fertility),ND (>1.30) μg/L
same,minimal effective concentration,"[5]; Oryzias latipes, 504 h, read-out: LOECmVTG",> 0.0013 µg/mL
same,LOECTOX,[5]; lowest observed effect concentration on mortality,ND (>1.3) μg/L
same,GSI Female,[5]; [6],9.9 ± 0.7%
same,GSI Male,[5]; [6],0.75 ± 0.07%
same,HSI Female,[5]; [6],4.3 ± 0.70%
same,HSI Male,[5]; [6],2.7 ± 0.30%
same,Length Female,[5]; [6],33.5 ± 1.1 mm
same,Length Male,[5]; [6],33.8 ± 1.4 mm
same,Weight Female,[5]; [6],454 ± 36 mg
same,Weight Male,[5]; [6],418 ± 51 mg
same,GSI Female,[5]; [7],9.7 ± 0.5%
same,GSI Male,[5]; [7],0.67 ± 0.11%
same,HSI Female,[5]; [7],4.7 ± 0.40%
same,HSI Male,[5]; [7],2.3 ± 0.50%
same,Length Female,[5]; [7],34.4 ± 0.9 mm
same,Length Male,[5]; [7],34.0 ± 0.2 mm
same,Weight Female,[5]; [7],484 ± 33 mg
same,Weight Male,[5]; [7],422 ± 22 mg
same,GSI Female,[5]; [8],10.0 ± 0.1%
same,GSI Male,[5]; [8],0.72 ± 0.10%
same,HSI Female,[5]; [8],4.4 ± 0.80%
same,HSI Male,[5]; [8],2.5 ± 0.20%
same,Length Female,[5]; [8],34.1 ± 0.5 mm
same,Length Male,[5]; [8],33.9 ± 1.9 mm
same,Weight Female,[5]; [8],491 ± 33 mg
same,Weight Male,[5]; [8],416 ± 56 mg

# — PMC9297976 (Journal of Applied Toxicology, 2021)
